One data set relates to human UT7TPO cell line. Put plainly: Proliferation assay using the human UT7TPO cell line. It counts as cell-based. Particulars: UT7TPO cells. An excerpt: Proliferation Assay Some of the more preferred compounds of this invention were active in an in vitro proliferation assay using the human UT7TPO cell line. UT7TPO cells are a human megakaryoblastic cell line that express Tpo-R, whose survival and growth is dependent on the presence of TPO (Komatsu et al. Blood 1996, 87,4552).

A word on the melting point: it is the temperature of the solid-liquid transition. As for `CC1=NN(c2ccc(C)c(C)c2)C(=O)C1=NNc1ccc(-c2ccc(C(=O)O)cc2)cc1O` (hydrate or solvate) [Example 1, 4′-{N′-[1-(3,4-dimethylphenyl)-3-methyl-5-oxo-1,5-dihydropyrazol-4-ylidene]hydrazino}-3′-hydroxybiphenyl-4-carboxylic acid], the melting point was 280 °C (dec.).
As for `CC1=NN(c2ccc(C(C)(C)C)cc2)C(=O)C1=NNc1cccc(-c2cccc(C(=O)O)c2)c1O` (hydrate or solvate) [Example 4, 3′-{N′-[1-(4-tert-butylphenyl)-3-methyl-5-oxo-1,5-dihydropyrazol-4-ylidene]hydrazino}-2′-hydroxybiphenyl-3-carboxylic acid], the melting point is 145 °C (dec.).
Still for that read-out and setting: with `CC1=NN(c2ccc(C)c(C)c2)C(=O)C1=NNc1ccc(-c2cccc(C(=O)O)c2)cc1O` [Example 2, 4′-{N′-[1-(3,4-dimethylphenyl)-3-methyl-5-oxo-1,5-dihydropyrazol-4-ylidene]hydrazino}-3′-hydroxybiphenyl-3-carboxylic acid] the figure was 282 °C (dec.).
What is called EC50 is the concentration at which the effect is half-maximal. With `CC1=NN(c2ccc(C)c(C)c2)C(=O)C1=NNc1cccc(-c2cccc(C(=O)O)c2)c1O` [Example 3, 3′-{N′-[1-(3,4-dimethylphenyl)-3-methyl-5-oxo-1,5-dihydropyrazol-4-ylidene]hydrazino}-2′-hydroxybiphenyl-3-carboxylic acid], the EC50 in the data set with human UT7TPO cell line (Homo sapiens, UT7/TPO) was found to be 30 nM. The “activity relative to TPO in the proliferation assay” value with human UT7TPO cell line is given as 100 % TPO.
In the case of `Cc1ccc(N2N=C(Cl)C(=NNc3cccc(-c4cccc(C(=O)O)c4)c3O)C2=O)cc1C` [Example 24, 3′-{N′-[3-Chloro-1-(3,4-dimethylphenyl)-5-oxo-1,5-dihydropyrazol-4-ylidene]hydrazino}-2′-hydroxybiphenyl-3-carboxylic acid], the melting point is 210 °C (dec.).

The values are drawn from patent publication US7674887B2, “Thrombopoietin mimetics” (GlaxoSmithKline LLC, priority 2000, dated 2010).
